Results: patent US7205387B2, “Recombinant polypeptide useful for neurotrophin receptor mediated gene delivery and as neurotrophin agonist” (Agency for Science, Technology and Research, priority 2003, dated 2007)
Bridge positions count the residues as written; N and C are the ends. Ends that are not written are not given here.

How the values were obtained:
[1] = system: Erk1 and Erk2; assay: Phospho-Erk1/Erk2 (p44/p42 MAPK) immunoblot in PC12 cells; assay type: cell-based, rat; details: for effect of TrkA inhibitor pre-treatment on NL4- and NL4-10K-induced phosphorylation of Erk1 and Erk2: 100 nM K-252a or 10 μM AG879, 10 min pre-incubation
Procedure: (§1) Immunoblotting experiments were conducted to test whether the chimeric polypeptides could, like NGF, induce autophosphorylation of TrkA and activation of its signal transduction pathways. PC12 cells were seeded in 6-well plates at a density of 2×10^6 cells/well and cultured in RPMI 1640 containing 0.5% FBS and 0.25% horse serum for 2 days. The low serum concentrations were necessary to reduce the basal levels of phosphorylation. The medium was refreshed two hours before beginning treatment. The cells were incubated with the polypeptides or NGF in serum-free medium for 15–20 min. The cells were then washed in PBS, lysed, and sonicated. The cell lysates were resolved by SDS-PAGE and transferred to a nitrocellulose membrane for immunoblotting. The primary antibodies used include Phospho-TrkA (Tyr490) antibody, Phospho-p44/p42 MAPK (Thr202/Tyr204) monoclonal antibody, and Phospho-Akt (Ser473) monoclonal antibody, all obtained from Cell Signaling Technology (Beverly, Mass., USA). Colorimetric detection was performed by standard techniques after using horse-radish peroxidase-conjugated secondary antibodies. In some experiments, TrkA tyrosine kinase inhibitors K-252a or AG879 (both from Calbiochem, La Jolla, Calif., USA) were used. In these cases, PC12 cells were incubated with 100 nM K-252a or 10 μM AG879 before addition of polypeptides or NGF.

[2] = system: PC12 (TrkA and p75^NTR positive) cells; assay: Gene delivery in vitro (pCAGluc luciferase reporter), PC12 cells; assay type: cell-based, rat; details: for dose-response of transfection efficiency with increasing amount of peptide: 1 μg pCAGluc/well, 100 μM chloroquine
Procedure: A PC12 (rat pheochromocytoma) cell line was obtained from ATCC (American Type Culture Collection, Manassas, Va., USA) and cultured in RPMI-1640 medium supplemented with 10% fetal bovine serum (FBS) and 5% horse serum. PC12 cells are known to express TrkA and p75^NTR receptors. A COS7 (African green monkey kidney fibroblast) cell line was obtained from ATCC and cultured in Dulbecco's modified Eagle's medium (DMEM) supplemented with 10% fetal bovine serum, 50 U/ml penicillin, and 50 μg/ml streptomycin. The cells were maintained in a 37° C., 5% CO2, humidified incubator.
To determine the transfection efficiencies of our nucleic acid delivery systems, we employ a reporter plasmid, pCAGluc (a gift from Yoshiharu Matsuura, National Institute of Infectious Diseases, Tokyo, Japan), encoding firefly luciferase under the control of the composite promoter, CAG. CAG comprises the chicken β-actin promoter and the cytomegalovirus immediate early enhancer.
TrkA-targeting gene delivery complexes were tested for transfection efficiency in vitro in PC12 (TrkA and p75^NTR positive) cells and COS7 (neurotrophin receptor negative) cells. The cells were grown to 50–70% confluency in microplate wells (24-, 48-, or 96-well plates). The gene delivery complexes were prepared according to specifications presented for each example. Transfection was accomplished by replacing the serum-enriched medium with half the usual volume of reduced-serum medium, Opti-MEM (Invitrogen), containing the gene delivery complexes. Where specifically mentioned, 100 μM of chloroquine was also added to help the complexes escape from endosomes. After four hours of incubation, the cells were restored to the normal medium volume and serum concentration, either by topping up with medium containing twice the usual serum concentration (RPMI-1640 with 20% FBS and 10% horse serum for PC12) or by completely replacing the medium.
One to two days after transfection, the cell culture medium was removed and the cells were rinsed in phosphate-buffered saline (PBS). Enough Reporter Lysis Buffer (Promega, Wisconsin, Md., USA) to cover the bottom surface was added to each well (50 μl/well for 48-well plates). After one freeze-thaw cycle, the lysates were tested for luciferase activity using the Luciferase Assay System (Promega) and a single-tube luminometer (Berthold Lumat L B 9507, Bad Wildbad, Germany). The total protein concentration of each lysate was determined using the DC Protein assay (Bio-Rad, Hercules, Calif., USA). The results were expressed in relative light units (RLU) per milligram of total protein.

[3] = system: plasmid DNA; assay: DNA retardation assay (agarose gel electrophoresis); assay type: binding
Procedure: This assay qualitatively assesses the ability of a polypeptide or polycation to bind to DNA and thus to retard its migration (by decreasing its charge/mass ratio) through an agarose gel under electrophoresis. For a range of N/P ratios, polypeptide was added to 0.1 μg of plasmid DNA made up to 20 μl with either HEPES-buffered saline (HBS, 150 mM NaCl, 29 mM HEPES, pH 7.3) or 5% glucose. The mixtures were vortexed and incubated at room temperature for 30 minutes before being subjected to electrophoresis in a 0.8–1.0% Tris-borate-EDTA agarose gel stained with ethidium bromide for visualization under ultraviolet light.

[4] = target: T1, TrkA (Rattus norvegicus, UniProt P35739); assay: Phospho-TrkA immunoblot in PC12 cells; assay type: cell-based; details: 5 μM peptide, 20 min
T1 construct: endogenous in cells; host or cells: PC12 (rat pheochromocytoma, ATCC)
T1 sequence (P35739 33-799): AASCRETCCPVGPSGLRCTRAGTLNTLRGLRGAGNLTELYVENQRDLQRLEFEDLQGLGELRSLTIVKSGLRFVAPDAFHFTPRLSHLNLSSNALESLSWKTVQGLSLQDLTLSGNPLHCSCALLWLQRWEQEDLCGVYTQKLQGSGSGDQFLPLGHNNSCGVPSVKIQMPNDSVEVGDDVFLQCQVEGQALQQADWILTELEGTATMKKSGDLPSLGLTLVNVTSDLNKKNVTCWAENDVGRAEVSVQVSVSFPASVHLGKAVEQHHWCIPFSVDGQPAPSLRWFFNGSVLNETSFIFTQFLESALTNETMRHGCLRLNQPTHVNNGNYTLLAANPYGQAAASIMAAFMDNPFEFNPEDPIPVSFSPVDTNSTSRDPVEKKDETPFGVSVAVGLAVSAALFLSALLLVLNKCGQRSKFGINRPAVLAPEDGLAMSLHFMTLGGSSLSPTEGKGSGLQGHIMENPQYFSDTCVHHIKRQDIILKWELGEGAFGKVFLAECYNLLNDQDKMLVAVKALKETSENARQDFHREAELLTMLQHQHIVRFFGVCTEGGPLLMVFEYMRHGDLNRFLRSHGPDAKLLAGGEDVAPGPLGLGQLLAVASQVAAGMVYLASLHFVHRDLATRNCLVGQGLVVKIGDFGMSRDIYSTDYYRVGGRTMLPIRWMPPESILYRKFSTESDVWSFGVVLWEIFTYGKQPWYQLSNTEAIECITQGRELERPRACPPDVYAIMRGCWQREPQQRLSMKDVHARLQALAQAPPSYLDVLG
Procedure: as §1

[5] = system: Akt; assay: Phospho-Akt immunoblot in PC12 cells; assay type: cell-based, rat; details: 5 μM peptide, 20 min
Procedure: as §1

[6] = system: PC12 cells; assay: PC12 cell survival assay (MTT, serum-free medium); assay type: cell-based, rat; details: differentiated PC12, serum and NGF deprived 4 days; 0.125 to 2.5 μM; NGF 10 ng/ml control
Procedure: Undifferentiated or differentiated (by 6-day treatment with 10 ng/ml NGF) PC12 cells seeded onto collagen-coated 96-well plates were exposed to serum-free RPMI-1640 medium containing either NGF or various concentrations of chimeric polypeptides. After 3–4 days of incubation, cell viability was measured by the standard MTT assay. Cell survival was expressed as a percentage of the viability of the NGF-treated control.

[7] = system: primary cortical neurons; assay: Gene delivery to primary cultures of cortical neurons; assay type: cell-based, rat
Procedure: Primary cultures of neurons were established from the cortices of embryonic Wistar rats at gestational day 20. Cortices freed of meninges were dissected and individual cells were dispersed mechanically by trituration of minced tissue in 3 ml DMEM medium supplemented with 2% FBS. The suspension was allowed to settle in a centrifuge tube. The cells in the supernatant were collected by centrifugation and resuspended gently in DMEM with 10% FBS. Viability of the cells was assessed prior to plating using trypan blue. Cells were plated onto microplates pre-coated with poly-L-lysine/laminin at a density of 7.5×10^5 viable cells/cm^2. After a two-hour incubation period to allow neurons to attach, the medium and unattached cells were removed and replaced by serum-free DMEM/F12 medium with 1% N2 supplement (Invitrogen, Carlsbad, Calif., USA). The cell were then incubated at 37° C. in 5% CO2 in a humidified incubator. After 2–5 days of culture, the neuron cells were used for transfection experiments. Gene delivery complexes were also tested on primary cultures of cortical neurons and glial cells in a similar fashion. […] Four hours later, an equal volume of DMEM-F12/N2 was added. One to two days after transfection, the cell culture medium was removed and the cells were rinsed in phosphate-buffered saline (PBS). Enough Reporter Lysis Buffer (Promega, Wisconsin, Md., USA) to cover the bottom surface was added to each well (50 μl/well for 48-well plates). After one freeze-thaw cycle, the lysates were tested for luciferase activity using the Luciferase Assay System (Promega) and a single-tube luminometer (Berthold Lumat L B 9507, Bad Wildbad, Germany). The total protein concentration of each lysate was determined using the DC Protein assay (Bio-Rad, Hercules, Calif., USA). The results were expressed in relative light units (RLU) per milligram of total protein.

[8] = system: primary glial cells; assay: Gene delivery to primary cultures of glial cells; assay type: cell-based, rat
Procedure: Primary cultures of glial cells were established from the cortices of 20-day old embryonic Wistar rats. Individual cells were collected as described above. The cells were plated at a density of 4×10^5 viable cells/cm^2 on poly-L-lysine/laminin coated dishes and grown to confluence for 7 days in DMEM/F12 medium supplemented with 10% FCS. The day before transfection, the cells were detached and plated into coated microplates at a density of 2.5×10^4 cells per well. Gene delivery complexes were also tested on primary cultures of cortical neurons and glial cells in a similar fashion. […] Four hours later, an equal volume of DMEM-F12/N2 was added. One to two days after transfection, the cell culture medium was removed and the cells were rinsed in phosphate-buffered saline (PBS). Enough Reporter Lysis Buffer (Promega, Wisconsin, Md., USA) to cover the bottom surface was added to each well (50 μl/well for 48-well plates). After one freeze-thaw cycle, the lysates were tested for luciferase activity using the Luciferase Assay System (Promega) and a single-tube luminometer (Berthold Lumat L B 9507, Bad Wildbad, Germany). The total protein concentration of each lysate was determined using the DC Protein assay (Bio-Rad, Hercules, Calif., USA). The results were expressed in relative light units (RLU) per milligram of total protein.

[9] = system: plasmid DNA; assay: Atomic force microscopy of polypeptide-DNA complexes; assay type: physicochemical; details: N/P ratio of 10
Procedure: DNA samples, polypeptide-DNA complexes, and polypeptide-polycation-DNA complexes were prepared with a DNA concentration of 0.02 mg/ml. The samples were diluted ten-fold in HPLC-grade water, and 20 μl of each sample was deposited onto mica discs. After one minute, the mica discs were washed with HPLC-grade water and dried in a stream of filtered air. Images were acquired on a Nanoscope IIIa atomic force microscope (Digital Instruments, Santa Barbara, Calif., USA) operating in tapping mode in air, using Nanoprobe Silicon tips (Digital Instruments).

[10] = 0.25 μg/well pCAGluc, PEI600-based complexes
[11] = pCAGluc/SPKR4BL1-2 without PEI600, 0.25 μg/well

CC(C)(C)c1cc(/C=C(\C#N)C(N)=S)cc(C(C)(C)C)c1O [AG879, reference compound]
effect of TrkA inhibitor pre-treatment on NL4- and NL4-10K-induced phosphorylation of Erk1 and Erk2 [1]: greatly reduced

COC(=O)[C@@]1(O)C[C@H]2O[C@]1(C)n1c3ccccc3c3c4c(c5c6ccccc6n2c5c31)C(=O)NC4 [K-252a, reference compound]
effect of K-252a on Erk phosphorylation induced by 8 μM SPKR4NL1-2 ([1]; 0, 10, 20, 50 and 100 nM K-252a, 10 min pre-incubation): reduced and eventually eliminated
effect of TrkA inhibitor pre-treatment on NL4- and NL4-10K-induced phosphorylation of Erk1 and Erk2 [1]: greatly reduced

KKKKKKKKKK (artificial sequence lysine 10) [10K, ten consecutive lysine residues, reference compound]
dose-response of transfection efficiency with increasing amount of peptide [2]: Neither NL4 (targeting domain only) nor 10K (DNA-binding domain only) nor a mixture of the two exhibited this dose-responsive trend
reduction of efficiency of NL4-10K/pCAGluc gene delivery by excess free competitor ([2]; competitor present during transfection, complexes at N/P ratio of 5, 100 μM chloroquine): did not have a significant effect

NGF: nerve growth factor, neurotrophin; competitor and positive control
effect of added NGF on transfection by (SPKR)4/DNA/PEI600 ([2]; NGF 200 ng/ml): no significant effect
effect of added NGF on transfection by SPKR4NL1-2/DNA/PEI600 ([2]; NGF 200 ng/ml during transfection): greatly reduces the transfection efficiency

NL4: loop 4 of NGF and the flanking β-sheet sequences, amino acids 80–108; targeting domain only (CTTTHTFVKALTMDGKQAAWRFIRIDTAC; disulfide 1-29)
DNA binding / retardation of DNA migration (in words) [3]: does not retard DNA migration
dose-response of transfection efficiency with increasing amount of peptide [2]: Neither NL4 (targeting domain only) nor 10K (DNA-binding domain only) nor a mixture of the two exhibited this dose-responsive trend
activation (phosphorylation) of TrkA [4]: induced activation
activation (phosphorylation) of Erk 1 and Erk 2 ([1]; 5 μM peptide, 20 min): induced activation
activation (phosphorylation) of Akt [5]: induced activation
cell survival rate as % of optimal NGF-promoted survival [6]: 68–109%

SPKRSPKRSPKRSPKR (artificial sequence SPKR4) [(SPKR)4, reference compound]
transgene expression (in words) [7, 10]: enhances transgene expression
transgene expression (in words) [8, 10]: enhances transgene expression

B1: SPKR4BL1-2: chimeric protein analogous to SPKR4NL1-2 with loops 1 and 2 of BDNF (aa 22–74) to bind TrkB (protein)
chain: MGHHHHHHHHHHSSGHIEGRHMSPKRSPKRSPKRSPKRGGTYLSEDELKAAEAAFKRHNPTGSCSISEWVTAADKKTAVDMSGGTVTVLEKVPVSKGQLKQYFYETKCNPMGYTKEG
modifications: SPKR4BL1-2
N/P ratio at which plasmid DNA is completely retarded (complex immobile) ([3]; 0.1 μg plasmid DNA, agarose gel): 2 N/P ratio
peptide/DNA amount equivalent to the N/P ratio of complete retardation ([3]; N/P ratio of 2): 0.8 nmol/ug DNA
diameter of condensed plasmid DNA particles [9]: under 200 nm
increase of transgene expression with increasing SPKR4BL1-2 ([7]; PEI600 fixed at N/P ratio of 10, 0.25 μg/well pCAGluc, highest ratio used): up to 500 fold
transgene expression relative to PEI600/DNA [8, 11]: 50 times
transgene expression relative to naked DNA [8, 11]: 180 times
